Laboratory results as given in patent US20070275936A1, “Formulations and Treatment Methods” (priority 1998, published 2007).
Marks after values point to notes of the source that are not given here.

Legend:
[1] = system: Immune cell subsets; experiment: Human HIV clinical protocol: immune phenotypes by flow cytometry; format: in vivo; details: for CD8+CD16+CD38+ cells, median: Baseline 8; for CD8−CD16+ cells, median: Baseline 53; for CD8+CD69+CD25− cells, median: Baseline 18; for Activated T cells (CD8+ CD69+ CD25−), median: about 1 week after last dose
Experimental: Patients infected with HIV are dosed with an i.m. injection of 25-200 mg of BrEA using a formulation containing 100 mg/mL BrEA, PEG300 ˜30% v/v, propylene glycol 30% v/v, benzyl benzoate 30% v/v and benzyl alcohol 2% v/v. The pateints are dosed once per day for 5 consecutive days followed by a period of about 28 days or longer with no BrEA treatment. The patients were them provided with one more course of 5 consecutive days of dosing with BrEA, followed by a non-dosing period of at least about 28 days. Up to 8 rounds of 5-day treatments, followed by at least 28 days of no dosing were provided. Immunological responses were then assayed using blood or plasma samples from the patients by flow cytometry and other known analytical methods. Immune cell subsets or other measured markers were assayed within 24 hours of obtaining the sample from each patient. Labeled antibodies, e.g., anti-CD antigen antibodies conjugated with fluorescent dyes (FITC, phycoerythrin, allophycocyanin or PerCP), were prepared and used essentially according to standard protocols using commercially available reagents, see, e.g., PharMingen, 1998 Research Products Catalog, technical protocols at pages 732-774, human cell surface molecules at pages 182-295 and mouse, rat and hamster cell surface molecules at pages 2-173 and cytokine and chemokine reagents at pages 344-489.
Otherwise untreated patients with CD4 counts of ≧200/μL and HIV-1 viral RNA between 5,000 and 1,000,000 copies/mL (branched-DNA, version 3.0, Bayer, Tarrytown, N.Y.) provided informed consent and were enrolled into a Phase I/II dose-escalation study of the safety and efficacy of intramuscular injections of BrEA. The protocol was conducted in South Africa. In the first cohort, four patients received an initial injection of 1 mL (50 mg), followed by a safety and pharmocokinetic study for seven days, and then received five daily injections of 1 mL (50 mg). The second cohort of 8 patients was randomized in a 1:2 ratio to receive either 50 mg (1 mL) or 100 mg (2 mL) on the same schedule. Patients were allowed at the discretion of the investigators to receive up to three additional courses each, repeated after 28 days of observation. The protocol was amended to introduce an improved formulation, and to extend the initial pharmacokinetic and safety period to 14 days, the observation period following the five daily doses to 35 days, and to allow up to 7 treatment courses. A third cohort of 24 patients was randomized in a 1:2:4 ratio to receive either 50 mg (0.5 mL), 100 mg (1 mL), or 200 mg (2 mL) of BrEA. The patients were all male, since initial safety studies are not permitted in females in South Africa. Within the group of 39 patients randomized, the ethnic demographic included was 18 Caucasian, 17 African, and 4 other. The average age was 34 (range 20-63), the average initial CD4/μL was 434 (range 176-1210), and the average viral load was 13,772 copies/mL (range 3,020-158,489). Patients underwent physical examinations and provided samples for chemistry, hematology, virology and immunology testing approximately every two weeks.
Course 1, 2 and 3 refer to each 5 consecutive day treatment regimen of one daily injection with BrEA (50 or 100 mg BrEA per injection). The formulation contained 100 mg/mL BrEA, PEG300 ˜30% v/v, propylene glycol 30% v/v, benzyl benzoate 30% v/v and benzyl alcohol 2% v/v. The data shown below was obtained from patient blood samples at baseline (on the day dosing was initiated) and at various times after the patients received at least one dose of BrEA. […] The patients in this protocol initially had CD4 counts of at least 200 per mm^3 and a serum HIV RNA load of 5,000 to 1×10^6 RNA copies/mL. […] Average CD4 IL-10 production dropped from a median of 66% to 4% of the cells, while CD4 IFNγ went from a median of 8% to 63%, leading to a Th2 to a Th1 shift in cytokine production. […]

[2] = system: HCV; experiment: HCV level by PCR in HIV/HCV infected patient dosed I.V. with BrEA; format: in vivo; details: predosing 6.5
Experimental: A patient infected with HIV and HCV was dosed I.V. with BrEA for 3 consecutive days using a formulation that contained 20 mg/mL BrEA in 45% w/v hydroxypropyl-β-cyclodextrin and saline. Four mL of the formulation (80 mg BrEA) was administered to the patient every 4 hours during the 3 day treatment period. The patient's predosing HCV level was 6.5 Log10 as measured by PCR and the HCV level was 6.2 Log10 on the first day of dosing, 5.5 Log10 on the 3rd day of dosing and 4.9 Log10 three days after the last dose was administered. HIV RNA levels as measured by PCR was 5.2 Log10 (predosing), 5.8 Log10 (first day), 5.9 Log10 (third day) and 5.4 Log10 (day 6). The NK cell counts (cells/mm^3) were 28, 41 and 38 at predosing, day 0 and day 3.

In the case of `C[C@]12CC[C@H](O)C[C@@H]1CC[C@@H]1[C@@H]2CC[C@]2(C)C(=O)[C@H](Br)C[C@@H]12` [BrEA, 16α-bromo-3β-hydroxy-5α-androstane-17-one], the “Early Activation-Stage CD8+ T cells: Time-averaged AUC Increase Mean ± SEM” value ([1]; CD3+ CD8+ CD69+ CD25−, n=36, p=0.049) is reported as 67 ± 33%, the “LAK: Time-averaged AUC Increase Mean ± SEM” value ([1]; CD8+ CD16+, n=36, p=0.19) is reported as 13 ± 9% and the “NK: Time-averaged AUC Increase Mean ± SEM” value ([1]; CD8−CD16+, n=36, p=0.20) is reported as 29 ± 22%. The “Lin− HLA-DR+ CD11c+/CD123+ cells, median” value ([1]; Course 1, Baseline 3.2, n=10, p<0.001) was 17.7 cells/μL, the “CD8+CD16+CD38+ cells, median” value ([1]; Course 1, n=10, p<0.001) was 27 cells/μL and the “CD8−CD16+ cells, median” value ([1]; Course 1, n=12, p<0.001) was 253 cells/μL. For the same molecule, the “CD8+CD69+CD25− cells, median” value ([1]; Course 1, HIV patients, 50 or 100 mg i.m. daily ×5, n=13, p<0.001) was 54 cells/μL, the “CD8+CD16+CD38+ cells, median” value ([1]; Course 2, n=4, p=0.047) was 28 cells/μL and the “CD8+CD69+CD25− cells, median” value ([1]; Course 2, n=9, p<0.001) was 56 cells/μL. For the same molecule, the “CD8−CD16+ cells, median” value ([1]; Course 2, n=4, p=0.02) was 288 cells/μL, the “Lin− HLA-DR+ CD11c+/CD123+ cells, median” value ([1]; Course 2, baseline value from initiation of 2nd course = 6.4, n=5, p=0.02) was 11.4^c cells/μL and the “CD8+CD16+CD38+ cells, median” value ([1]; Course 3, n=4, p=0.02) was 25 cells/μL. For the same molecule, the “CD8+CD69+CD25− cells, median” value ([1]; Course 3, n=4, p=0.04) was 75 cells/μL, the “CD8−CD16+ cells, median” value ([1]; Course 3, n=2, p=0.04) was 249 cells/μL and the “Lin− HLA-DR+ CD11c+/CD123+ cells, median” value ([1]; Course 3, baseline value from initiation of 2nd course = 6.4, n=4, p=0.04) was 14.7^c cells/μL. For the same molecule, the “DC1 (CD11c+) Dendritic Cells: Time-averaged AUC Increase Mean ± SEM” value ([1]; Lineage− HLA-DR+ CD11c+, n=31, p=0.010) was 50 ± 18%, the “DC2 (CD123+) Dendritic Cells: Time-averaged AUC Increase Mean ± SEM” value ([1]; Lineage− HLA-DR+ CD123+, n=31, p=0.021) was 32 ± 13% and the “Activated T cells (CD8+ CD69+ CD25−), median” value (from here on “Activated T cells”) ([1]; Treatment 1, treated, baseline 19) was 54 (n = 13, p < 0.001) cells/μL. The “Dendritic cells (Lin− HLA-DR+ CD123+/CD11+), median” value (“Dendritic cells … median” below) ([1]; Treatment 1, treated, baseline 3.5) was 18 (n = 10, p = 0.001) cells/μL, the “LAK cells (CD8+ CD16+ CD38+), median” value ([1]; Treatment 1, treated, baseline 8) was 27 (n = 10, p < 0.001) cells/μL and the “NK (ADCC responders) cells (CD8− CD16+), median” value (from here on “NK (ADCC responders) cells”) ([1]; Treatment 1, treated, baseline 54) was 253 (n = 12, p < 0.001) cells/μL. For the same molecule, the “Activated T cells” value ([1]; Treatment 2, treated, baseline 19) was 56 (n = 9, p < 0.001) cells/μL, the “Dendritic cells … median” value ([1]; Treatment 2, treated, baseline 6.5) was 11.5 (n = 5, p = 0.02) cells/μL and the “LAK cells (CD8+ CD16+ CD38+), median” value ([1]; Treatment 2, treated, baseline 12) was 28 (n = 4, p = 0.04) cells/μL. The “NK (ADCC responders) cells” value ([1]; Treatment 2, treated, baseline 58) was 285 (n = 4, p = 0.02) cells/μL, the “Activated T cells” value ([1]; Treatment 3, treated, baseline 18) was 74 (n = 4, p = 0.04) cells/μL and the “Dendritic cells … median” value ([1]; Treatment 3, treated, baseline 6) was 55 (n = 4, p = 0.04) cells/μL. For the same molecule, the “LAK cells (CD8+ CD16+ CD38+), median” value ([1]; Treatment 3, treated, baseline 12) was 25 (n = 4, p = 0.02) cells/μL, the “NK (ADCC responders) cells” value ([1]; Treatment 3, treated, baseline 56) was 250 (n = 2, p = 0.04) cells/μL and the “CD4 IL-10 production, median % of the cells” value ([1]; after one course (5 daily i.m. injections), dropped from 66%) was 4%. The “CD4 IFNγ, median % of the cells” value ([1]; after one course (5 daily i.m. injections), went from 8%) was 63%, the “DC1 (CD11c+) Dendritic Cells: Maximum Analysis Visit Responses Mean” value ([1]; analysis visit day 22) was 58% (22) and the “NK: Maximum Analysis Visit Responses Mean” value ([1]; analysis visit day 36) was 41% (36). The “LAK: Maximum Analysis Visit Responses Mean” value ([1]; analysis visit day 67) was 34% (67), the “DC2 (CD123+) Dendritic Cells: Maximum Analysis Visit Responses Mean” value ([1]; analysis visit day 80) was 44% (80) and the “Total Dendritic Cells: Maximum Analysis Visit Responses Mean” value ([1]; analysis visit day 139) was 38% (139). The “Early Activation-Stage CD8+ T cells: Maximum Analysis Visit Responses Mean” value ([1]; analysis visit day 153) was 162% (153), the “DC1 (CD11c+) Dendritic Cells: Maximum Individual Patient Responses Mean (range)” value ([1]; change from baseline, n=31) was 130% (−20 to 870%) and the “DC2 (CD123+) Dendritic Cells: Maximum Individual Patient Responses Mean (range)” value ([1]; change from baseline, n=31) was 100% (−30 to 480%). The “Total Dendritic Cells: Maximum Individual Patient Responses Mean (range)” value ([1]; change from baseline, n=31) was 100% (−20 to 600%), the “Early Activation-Stage CD8+ T cells: Maximum Individual Patient Responses Mean (range)” value ([1]; change from baseline, n=36) was 210% (0 to 3,090%) and the “LAK: Maximum Individual Patient Responses Mean (range)” value ([1]; change from baseline, n=36) was 90% (−90 to 630%). The “NK: Maximum Individual Patient Responses Mean (range)” value ([1]; change from baseline, n=36) was 140% (−40 to 1,220%), the “Activated CD8+ T cells: Time-averaged AUC Increase Mean ± SEM” value ([1]; i.m. BrEA, HIV patients, CD3+ CD8+ and CD69+ or CD25+, n=36, p=0.005) was 15 ± 5% and the “Activated CD8+ T cells: Maximum Analysis Visit Responses Mean” value ([1]; i.m. BrEA, HIV patients, analysis visit day 22) was 25% (22). The “Activated CD8+ T cells: Maximum Individual Patient Responses Mean (range)” value ([1]; i.m. BrEA, HIV patients, change from baseline, n=36) was 70% (−10 to 340%), the “DC1 to DC2 Ratio: Time-averaged AUC Increase Mean ± SEM” value ([1]; n=31, p=0.003) was 44 ± 13% and the “Total Dendritic Cells: Time-averaged AUC Increase Mean ± SEM” value ([1]; n=31, p=0.010) was 38 ± 14%. For the same molecule, the “HCV level by PCR” value ([2]; 3rd day of dosing) was 5.5 Log10, the “HCV level by PCR” value ([2]; first day of dosing, 80 mg I.V. every 4 hours for 3 days) was 6.2 Log10 and the “HCV level by PCR” value ([2]; three days after the last dose) was 4.9 Log10.
